Reference: publication PMC7592813 (Oncology Research, 2014)
Like-named read-outs stand apart in the source and are kept apart here.

Molecular target: T1, recombinant ENOX2 (tNOX) (Homo sapiens, UniProt Q16206)
T1 sequence (Q16206 1-610): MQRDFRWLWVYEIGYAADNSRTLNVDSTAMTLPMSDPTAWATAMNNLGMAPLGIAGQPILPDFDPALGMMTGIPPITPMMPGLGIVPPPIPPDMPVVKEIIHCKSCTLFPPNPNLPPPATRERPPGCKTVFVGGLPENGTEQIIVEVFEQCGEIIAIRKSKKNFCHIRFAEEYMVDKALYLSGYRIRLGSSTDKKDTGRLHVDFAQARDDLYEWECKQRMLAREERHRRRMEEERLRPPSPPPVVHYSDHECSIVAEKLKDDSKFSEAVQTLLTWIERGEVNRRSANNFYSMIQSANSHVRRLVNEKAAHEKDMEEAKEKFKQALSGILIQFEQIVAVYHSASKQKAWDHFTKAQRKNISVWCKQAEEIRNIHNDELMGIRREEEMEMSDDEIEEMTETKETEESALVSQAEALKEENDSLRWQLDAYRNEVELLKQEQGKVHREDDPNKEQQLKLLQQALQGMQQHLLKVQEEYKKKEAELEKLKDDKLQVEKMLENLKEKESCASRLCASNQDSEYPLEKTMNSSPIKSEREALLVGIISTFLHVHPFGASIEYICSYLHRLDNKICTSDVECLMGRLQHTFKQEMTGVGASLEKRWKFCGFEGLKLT
Test: NADH oxidation, A340
Format: biochemical

EC50 (150 µM NADH, 25 mM Tris-MES pH 7.2, 100 µM GSH, 1 mM KCN, 37 °C, inhibition)	EC50	Molecule
~50 nM		2H-1-benzopyran-7-0,1,3-(4-hydroxyphenyl) [ME-143]
	330 ± 153 nM	Oc1ccc(C2=Cc3ccc(O)cc3OC2)cc1 [phenoxodiol]
